# Measurements taken from US20220281848A1, “PYRAZOLE-SUBSTITUTED PYRROLIDINONES AS HERBICIDES” (FMC Corporation, priority 2019, published 2022).
# Tested on: plants
# Assay: Test D pre-emergence, other plants of Tables D1 and D3
# Assay type: in vivo
# Conditions: for damage to plant (100=total damage to plant; 0=no damage to plant), SORVU: preemergent, 20 DAA; for damage to plant, ALOMY / damage to plant, AVEFA / damage to plant, BEAVA / damage to plant, BROTE / damage to plant, BRSNN / damage to plant, CHEAL / damage to plant, GALAP / damage to plant, HORVW / damage to plant, KCHSC / damage to plant, LOLPE / damage to plant, POAAN / damage to plant, POLCO / damage to plant, SINAR / damage to plant, STEME / damage to plant, VERPE: pre-emergence, 100=total damage, 0=no damage
# How it was run: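 Damage was rated visually from 0 (none) to 100 (total), at 20 DAA for pre-emergence and 15 d for post-emergence. Plants grew from safener-treated seed in a glasshouse at 24/18° C. or 20/16° C. day/night, 65% humidity, watered twice daily.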
compound,measurement,setting,value
CN1C[C@H](c2nn(C)c3c(F)cccc23)[C@@H](C(=O)Nc2cccc(F)c2F)C1=O [Compound 2],"damage to plant (100=total damage to plant; 0=no damage to plant), SORVU",rate 130,0
same,"damage to plant (100=total damage to plant; 0=no damage to plant), SORVU",rate 250,0
same,"damage to plant (100=total damage to plant; 0=no damage to plant), SORVU",rate 500,0
same,"damage to plant, ALOMY","rate 15, 20 DAA",0
same,"damage to plant, AVEFA","rate 15, 20 DAA",0
same,"damage to plant, BEAVA","rate 15, 20 DAA",0
same,"damage to plant, BROTE","rate 15, 20 DAA",0
same,"damage to plant, BRSNN","rate 15, 20 DAA",0
same,"damage to plant, CHEAL","rate 15, 20 DAA",0
same,"damage to plant, GALAP","rate 15, 20 DAA",0
same,"damage to plant, HORVW","rate 15, 20 DAA",0
same,"damage to plant, KCHSC","rate 15, 20 DAA",0
same,"damage to plant, LOLPE","rate 15, 20 DAA",0
same,"damage to plant, POAAN","rate 15, 20 DAA",0
same,"damage to plant, POLCO","rate 15, 20 DAA",0
same,"damage to plant, SINAR","rate 15, 20 DAA",0
same,"damage to plant, STEME","rate 15, 20 DAA",0
same,"damage to plant, VERPE","rate 15, 20 DAA",0
same,"damage to plant, ALOMY","rate 30, 20 DAA",0
same,"damage to plant, AVEFA","rate 30, 20 DAA",0
same,"damage to plant, BEAVA","rate 30, 20 DAA",0
same,"damage to plant, BROTE","rate 30, 20 DAA",0
same,"damage to plant, BRSNN","rate 30, 20 DAA",0
same,"damage to plant, CHEAL","rate 30, 20 DAA",0
same,"damage to plant, GALAP","rate 30, 20 DAA",0
same,"damage to plant, HORVW","rate 30, 20 DAA",0
same,"damage to plant, KCHSC","rate 30, 20 DAA",0
same,"damage to plant, LOLPE","rate 30, 20 DAA",0
same,"damage to plant, POAAN","rate 30, 20 DAA",0
same,"damage to plant, POLCO","rate 30, 20 DAA",0
same,"damage to plant, SINAR","rate 30, 20 DAA",0
same,"damage to plant, STEME","rate 30, 20 DAA",0
same,"damage to plant, VERPE","rate 30, 20 DAA",0
same,"damage to plant, ALOMY","rate 60, 20 DAA",0
same,"damage to plant, AVEFA","rate 60, 20 DAA",0
same,"damage to plant, BEAVA","rate 60, 20 DAA",0
same,"damage to plant, BROTE","rate 60, 20 DAA",0
same,"damage to plant, BRSNN","rate 60, 20 DAA",0
same,"damage to plant, CHEAL","rate 60, 20 DAA",0
same,"damage to plant, GALAP","rate 60, 20 DAA",0
same,"damage to plant, HORVW","rate 60, 20 DAA",0
same,"damage to plant, KCHSC","rate 60, 20 DAA",0
same,"damage to plant, LOLPE","rate 60, 20 DAA",10
same,"damage to plant, POAAN","rate 60, 20 DAA",0
same,"damage to plant, POLCO","rate 60, 20 DAA",0
same,"damage to plant, SINAR","rate 60, 20 DAA",0
same,"damage to plant, STEME","rate 60, 20 DAA",0
same,"damage to plant, VERPE","rate 60, 20 DAA",0
same,"damage to plant, ALOMY","rate 130, 20 DAA",0
same,"damage to plant, AVEFA","rate 130, 20 DAA",0
same,"damage to plant, BEAVA","rate 130, 20 DAA",0
same,"damage to plant, BROTE","rate 130, 20 DAA",10
same,"damage to plant, BRSNN","rate 130, 20 DAA",0
same,"damage to plant, CHEAL","rate 130, 20 DAA",0
same,"damage to plant, GALAP","rate 130, 20 DAA",0
same,"damage to plant, HORVW","rate 130, 20 DAA",0
same,"damage to plant, KCHSC","rate 130, 20 DAA",0
same,"damage to plant, LOLPE","rate 130, 20 DAA",30
same,"damage to plant, POAAN","rate 130, 20 DAA",10
same,"damage to plant, POLCO","rate 130, 20 DAA",20
same,"damage to plant, SINAR","rate 130, 20 DAA",0
same,"damage to plant, STEME","rate 130, 20 DAA",0
same,"damage to plant, VERPE","rate 130, 20 DAA",0
same,"damage to plant, ALOMY","rate 250, 20 DAA",20
same,"damage to plant, AVEFA","rate 250, 20 DAA",0
same,"damage to plant, BEAVA","rate 250, 20 DAA",0
same,"damage to plant, BROTE","rate 250, 20 DAA",20
same,"damage to plant, BRSNN","rate 250, 20 DAA",10
same,"damage to plant, CHEAL","rate 250, 20 DAA",0
same,"damage to plant, GALAP","rate 250, 20 DAA",0
same,"damage to plant, HORVW","rate 250, 20 DAA",10
same,"damage to plant, KCHSC","rate 250, 20 DAA",0
same,"damage to plant, LOLPE","rate 250, 20 DAA",60
same,"damage to plant, POAAN","rate 250, 20 DAA",50
same,"damage to plant, POLCO","rate 250, 20 DAA",20
same,"damage to plant, SINAR","rate 250, 20 DAA",0
same,"damage to plant, STEME","rate 250, 20 DAA",0
same,"damage to plant, VERPE","rate 250, 20 DAA",0
same,"damage to plant, ALOMY","rate 500, 20 DAA",40
same,"damage to plant, AVEFA","rate 500, 20 DAA",10
same,"damage to plant, BEAVA","rate 500, 20 DAA",10
same,"damage to plant, BROTE","rate 500, 20 DAA",20
same,"damage to plant, BRSNN","rate 500, 20 DAA",20
same,"damage to plant, CHEAL","rate 500, 20 DAA",0
same,"damage to plant, GALAP","rate 500, 20 DAA",0
same,"damage to plant, HORVW","rate 500, 20 DAA",20
same,"damage to plant, KCHSC","rate 500, 20 DAA",0
same,"damage to plant, LOLPE","rate 500, 20 DAA",70
same,"damage to plant, POAAN","rate 500, 20 DAA",90
same,"damage to plant, POLCO","rate 500, 20 DAA",60
same,"damage to plant, SINAR","rate 500, 20 DAA",0
same,"damage to plant, STEME","rate 500, 20 DAA",60
same,"damage to plant, VERPE","rate 500, 20 DAA",0
